# Measurements: ChEMBL document CHEMBL4043185, “Discovery of non-zwitterionic aryl sulfonamides as Nav1.7 inhibitors with efficacy in preclinical behavioral models and translational measures of nociceptive neuron activation” (Bioorg Med Chem, 2017)
# Columns and labels:
# [1] = Unbound drug concentration in dorsal root ganglion of mouse model of formalin-induced persistent pain at 30 mg/kg, po measured after 90 mins post dose; assay type: ADME, organism-based; details: in vivo, 1.5 h
# [2] = Plasma concentration in mouse at 30 mg/kg, po measured after 30 mins post dose; assay type: ADME, organism-based
# [3] = Ratio of drug level in brain to plasma of mouse at 100 mg/kg, po measured after 90 mins post dose; assay type: ADME, organism-based; details: read-out: BPR
# Plasma [4] = test: Plasma concentration in mouse model of chronic constriction injury-induced cold hyperalgesia at 100 mg/kg, po dosed 30 mins before testing starting 5 weeks after surgery; assay type: ADME, organism-based; details: in vivo
# [5] = Unbound drug concentration in mouse dorsal root ganglion at 30 mg/kg, po measured after 30 mins post dose; assay type: ADME, organism-based; details: in vivo, 0.5 h
# [6] = Drug concentration in brain of mouse model of complete Freund's adjuvant-induced inflammatory pain at 30 mg/kg, po measured after 90 mins post dose; assay type: ADME, organism-based; details: read-out: Drug uptake
# [7] = Drug concentration in mouse brain at 100 mg/kg, po measured after 30 mins post dose; assay type: ADME, organism-based; details: read-out: Drug uptake
# [8] = Plasma concentration in mouse at 100 mg/kg, po measured after 90 mins post dose; assay type: ADME, organism-based
# [9] = Drug concentration in brain of mouse model of complete Freund's adjuvant-induced inflammatory pain at 60 mg/kg, po measured after 90 mins post dose; assay type: ADME, organism-based; details: read-out: Drug uptake
# Plasma [10] = test: Unbound plasma concentration in mouse model of chronic constriction injury-induced cold hyperalgesia at 100 mg/kg, po dosed 30 mins before testing starting 5 weeks after surgery; assay type: ADME, organism-based; details: in vivo
# [11] = Plasma concentration in mouse model of nociceptive flexion reflex 10 mg/kg, ip measured after 60 mins post dose; assay type: ADME, organism-based
# Plasma [12] = test: Unbound plasma concentration in mouse model of complete Freund's adjuvant-induced inflammatory pain at 10 mg/kg, po measured after 90 mins post dose; assay type: ADME, organism-based; details: in vivo, 1.5 h
# [13] = Ratio of drug level in brain to plasma of mouse at 100 mg/kg, po measured after 30 mins post dose; assay type: ADME, organism-based; details: read-out: BPR
# Plasma [14] = test: Unbound plasma concentration in mouse model of formalin-induced persistent pain at 30 mg/kg, po measured after 90 mins post dose; assay type: ADME, organism-based; details: in vivo, 1.5 h
# Plasma [15] = test: Unbound plasma concentration in mouse at 30 mg/kg, po measured after 30 mins post dose; assay type: ADME, organism-based; details: in vivo, 0.5 h
# Plasma [16] = test: Unbound plasma concentration in mouse model of nociceptive flexion reflex 10 mg/kg, ip measured after 60 mins post dose; assay type: ADME, organism-based; details: in vivo, 1 h
# [17] = Drug concentration in mouse dorsal root ganglion at 30 mg/kg, po measured after 30 mins post dose; assay type: ADME, organism-based; details: read-out: Drug uptake
# [18] = Drug concentration in brain of mouse model of complete Freund's adjuvant-induced inflammatory pain at 10 mg/kg, po measured after 90 mins post dose; assay type: ADME, organism-based; details: read-out: Drug uptake
# [19] = Drug concentration in mouse trigeminal ganglion at 30 mg/kg, po measured after 30 mins post dose; assay type: ADME, organism-based; details: read-out: Drug uptake
# Plasma [20] = test: Unbound plasma concentration in mouse model of nociceptive flexion reflex 30 mg/kg, ip measured after 60 mins post dose; assay type: ADME, organism-based; details: in vivo, 1 h
# [21] = Plasma concentration in mouse model of nociceptive flexion reflex 30 mg/kg, ip measured after 60 mins post dose; assay type: ADME, organism-based
# [22] = Half life in mouse at 30 mg/kg, po; assay type: ADME, organism-based; details: in vivo
# [23] = Plasma concentration in mouse model of complete Freund's adjuvant-induced inflammatory pain at 10 mg/kg, po measured after 90 mins post dose; assay type: ADME, organism-based
# [24] = Oral bioavailability life in mouse at 30 mg/kg; assay type: ADME, organism-based; details: in vivo
# Plasma [25] = test: Unbound plasma concentration in mouse model of complete Freund's adjuvant-induced inflammatory pain at 30 mg/kg, po measured after 90 mins post dose; assay type: ADME, organism-based; details: in vivo, 1.5 h
# [26] = Plasma concentration in mouse model of complete Freund's adjuvant-induced inflammatory pain at 60 mg/kg, po measured after 90 mins post dose; assay type: ADME, organism-based
# physchem [27] = details: PAMPA, pH 5.5
# physchem [28] = details: PAMPA, pH 7.4
# [29] = Plasma concentration in mouse model of formalin-induced persistent pain at 30 mg/kg, po measured after 90 mins post dose; assay type: ADME, organism-based
# [30] = Clearance in mouse at 2 mg/kg, iv; assay type: ADME, organism-based; details: in vivo
# [31] = Plasma concentration in mouse model of complete Freund's adjuvant-induced inflammatory pain at 30 mg/kg, po measured after 90 mins post dose; assay type: ADME, organism-based
# [32] = Volume of distribution at steady state in mouse at 2 mg/kg, iv; assay type: ADME, organism-based; details: in vivo, read-out: Vdss
# [33] = Cmax in mouse at 30 mg/kg, po; assay type: ADME, organism-based; set-up: dose 30 mg/kg, route oral; details: in vivo
# [34] = Drug concentration in mouse brain at 100 mg/kg, po measured after 90 mins post dose; assay type: ADME, organism-based; details: read-out: Drug uptake
# Plasma [35] = test: Unbound plasma concentration in mouse model of complete Freund's adjuvant-induced inflammatory pain at 60 mg/kg, po measured after 90 mins post dose; assay type: ADME, organism-based; details: in vivo, 1.5 h
# [36] = Drug concentration in dorsal root ganglion of mouse model of formalin-induced persistent pain at 30 mg/kg, po measured after 90 mins post dose; assay type: ADME, organism-based; details: read-out: Drug uptake
# [37] = Drug concentration in trigeminal ganglion of mouse model of formalin-induced persistent pain at 30 mg/kg, po measured after 90 mins post dose; assay type: ADME, organism-based; details: read-out: Drug uptake
# [38] = Plasma concentration in mouse at 100 mg/kg, po measured after 30 mins post dose; assay type: ADME, organism-based
# [39] = PAMPA, pH 5.5
structure (smiles),measurement,setting,value
O=S(=O)(Nc1nccs1)c1cc(Cl)c(NC[C@H]2CCCOC2)cc1F,Drug uptake(free),[1],0.07 µM
same,concentration at 0.5 h,[2],13000 nM
same,Kp at 1.5 h,[3],0.012
same,concentration,Plasma [4],32000 nM
same,Drug uptake(free),[5],0.11 µM
same,concentration at 1.5 h,[6],< 25 nM
same,concentration at 0.5 h,[7],120 nM
same,concentration at 1.5 h,[8],3670 nM
same,concentration at 1.5 h,[9],< 25 nM
same,Cp(f),Plasma [10],740 nM
same,concentration at 1 h,[11],29000 nM
same,Cp(f),Plasma [12],17 nM
same,Kp at 0.5 h,[13],0.017
same,Cp(f),Plasma [14],170 nM
same,Cp(f),Plasma [15],300 nM
same,Cp(f),Plasma [16],660 nM
same,concentration at 0.5 h,[17],1100 nM
same,concentration at 1.5 h,[18],< 25 nM
same,concentration at 0.5 h,[19],5800 nM
same,Cp(f),Plasma [20],1900 nM
same,concentration at 1 h,[21],82000 nM
same,half-life,[22],3 h
same,concentration at 1.5 h,[23],750 nM
same,bioavailability,[24],47%
same,Cp(f),Plasma [25],26 nM
same,concentration at 1.5 h,[26],2560 nM
same,Papp,physchem [27],47.7 ×10⁻⁶ cm/s
same,Papp,physchem [28],37.7 ×10⁻⁶ cm/s
same,concentration at 1.5 h,[29],7300 nM
same,clearance,[30],13 mL/min/kg
same,concentration at 1.5 h,[31],1130 nM
same,Vd,[32],0.6 L/kg
same,Cmax,[33],37000 nM
same,concentration at 1.5 h,[34],42 nM
same,Cp(f),Plasma [35],59 nM
same,concentration at 1.5 h,[36],660 nM
same,concentration at 1.5 h,[37],5000 nM
same,concentration at 0.5 h,[38],7340 nM
O=S(=O)(Nc1nccs1)c1cc(Cl)c(NC[C@H]2CCC[C@@H](O)C2)cc1F (racemic),Papp,physchem [27],21.6 ×10⁻⁶ cm/s
same,Papp,physchem [28],16.2 ×10⁻⁶ cm/s
O=S(=O)(Nc1nccs1)c1cc(Cl)c(NCC2CCCC3(C2)OCCO3)cc1F (stereo not given),Papp,physchem [27],45.1 ×10⁻⁶ cm/s
same,Papp,physchem [28],41.9 ×10⁻⁶ cm/s
CC(C)(C)[C@H]1OCCC[C@@H]1CNc1cc(F)c(S(=O)(=O)Nc2nccs2)cc1Cl (racemic),Papp,[39],Not Active
same,Papp,physchem [28],67.7 ×10⁻⁶ cm/s
O=S(=O)(Nc1nccs1)c1cc(Cl)c(NC[C@H]2CCC[C@H](O)C2)cc1F (racemic),Papp,physchem [27],21.6 ×10⁻⁶ cm/s
same,Papp,physchem [28],16.2 ×10⁻⁶ cm/s
CC(C)(C)[C@@H]1OCCC[C@@H]1CNc1cc(F)c(S(=O)(=O)Nc2nccs2)cc1Cl (racemic),Papp,physchem [28],43.9 ×10⁻⁶ cm/s
O=S(=O)(Nc1nccs1)c1cc(Cl)c(NCC2CCCCO2)cc1F (stereo not given),Papp,physchem [27],61 ×10⁻⁶ cm/s
same,Papp,physchem [28],61 ×10⁻⁶ cm/s
O=S(=O)(Nc1nccs1)c1cc(Cl)c(NC[C@H]2CCCO[C@@H]2c2ccccc2)cc1F (racemic),Papp,physchem [27],42.8 ×10⁻⁶ cm/s
same,Papp,physchem [28],73.5 ×10⁻⁶ cm/s
O=S(=O)(Nc1nccs1)c1cc(Cl)c(NC[C@H]2CC[C@@H](O)CC2)cc1F,Papp,physchem [27],46.4 ×10⁻⁶ cm/s
same,Papp,physchem [28],10.1 ×10⁻⁶ cm/s
O=S(=O)(Nc1nccs1)c1cc(Cl)c(NC[C@H]2CC[C@H](O)CC2)cc1F,Papp,physchem [27],54.6 ×10⁻⁶ cm/s
same,Papp,physchem [28],20.7 ×10⁻⁶ cm/s
